tested on: neuropathic rats (chronic constriction injury of the left sciatic nerve); test: Analgesic effect in chronic constriction injury (Bennett) model of neuropathic pain, Von Frey 50% withdrawal threshold; type: in vivo, Sprague-Dawley rats; details: rats rendered neuropathic via the Bennett Model; intrathecal administration in Captisol; mean ± SEM; p<0.05 vs vehicle control
Method: Determination of Analgesic Effect in an Experimental Model of Neuropathic Pain
Adult, male Sprague-Dawley rats were obtained from Charles River Laboratories (Wilmington, Mass.) and housed under standard conditions at the Institut Armand-Frappier (Laval, QC). Food and water were provided to experimental animals ad libitum, and rats weighed 175-200 grams at the time of assessment.
Compounds were prepared for intrathecal administration by dissolving them in a vehicle of Captisol® (CyDex, Lenexa, Kans.); total volume of solution administered to rats was 20 μL.
Neuropathic pain was induced in rats via chronic constriction injury (CCl) of the left sciatic nerve in accordance with the procedure described by Bennett & Xie (Pain, 1988). Briefly, under ketamine/xylazine anaesthesia, the sciatic nerve was exposed by dissection at the level of mid-thigh, and four loose ligatures (USP 4/0, Braun Melsungen, FRG) were implanted around the nerve—with due attention not to interrupt the epineural circulation. The incision was closed-up using simple suturing, and the rats allowed to recover.
After approximately two weeks, a stable allodynia to blunt mechanical stimuli was identified in the hind paw ipsilateral to the CCl, manifested as a reduction of 50% withdrawal threshold, and identified using the Von Frey technique, as described by Chaplan et al. (Journal of Neuroscience Methods, 1994). Rats were considered to be fully neuropathic upon displaying a 50% withdrawal threshold of <3.5 grams consistently over the course of 72 hours.
Under brief isoflurane […], compounds were administered to neuropathic rats via acute local delivery in the intrathecal space surrounding the lumbar enlargement of the spinal cord.

CCN(CC)C1CCN(C2=NC(=O)/C(=C\c3cc(F)ccc3OC(=O)N(C)C)S2)C1 (stereo not shown) and CN(C)[C@H]1CCN(C2=NC(=O)/C(=C/c3cc(F)ccc3O)S2)C1.CS(=O)(=O)O are within error of each other in “Peak 50% Withdrawal Threshold” value: 11.84 ± 1.58 g for the first, 9.72 ± 2.04 g for the second.

CN(C)[C@@H]1CCN(C2=NC/C(=C/c3cc(F)ccc3O)S2)C1.Cl and CN(C)[C@@H]1CCN(C2=NC(=O)/C(=C/c3ccc(F)cc3O)S2)C1 are within error of each other in “Peak 50% Withdrawal Threshold” value: 6.44 ± 1.33 g for the first, 5.6 ± 1.94 g for the second.

CN(C)[C@H]1CCN(C2=NC(=O)/C(=C/c3ccc(F)cc3O)S2)C1.CS(=O)(=O)O and CS(=O)(=O)O.O=C1N=C(N2CCN(CCO)CC2)S/C1=C\c1cc(F)ccc1O are within error of each other in “Peak 50% Withdrawal Threshold” value: 7.3 ± 1.37 g for the first, 6.40 ± 2.45 g for the second.

O=C1N=C(N2CCCCC2)S/C1=C\c1ccccc1O and O=C1N=C(N2CCCCN2)S/C1=C\c1ccc(F)cc1O [(5Z)-2-(1,2-diazinan-1-yl)-5-[(4-fluoro-2-hydroxyphenyl)methylidene]-4,5-dihydro-1,3-thiazol-4-one] are within error of each other in “Peak 50% Withdrawal Threshold” value: 6.74 ± 2.13 g for the first, 7.37 ± 2.02 g for the second.

O=C1N=C(N2CCN(CCO)CC2)S/C1=C\c1ccc(F)cc1O and O=C1N=C(N2CCCCN2)S/C1=C\c1cc(F)ccc1O [(5Z)-2-(1,2-diazinan-1-yl)-5-[(5-fluoro-2-hydroxyphenyl)methylidene]-4,5-dihydro-1,3-thiazol-4-one] are within error of each other in “Peak 50% Withdrawal Threshold” value: 8.23 ± 2.40 g for the first, 9.03 ± 2.00 g for the second.

Cl.O=C1N=C(N2CCCCN2)S/C1=C/c1cc(F)ccc1OC(=O)N1CCCC1 [2-{[(5E)-2-(1,2-diazinan-1-yl)-4-oxo-4,5-dihydro-1,3-thiazol-5-ylidene]methyl}-4-fluorophenylpyrrolidine-1-carboxylate hydrochloride] and Cl.O=C1N=C(N2CCCCN2)S/C1=C/c1ccc(F)cc1OC(=O)N1CCCC1 [2-{[(5E)-2-(1,2-diazinan-1-yl)-4-oxo-4,5-dihydro-1,3-thiazol-5-ylidene]methyl}-5-fluorophenyl pyrrolidine-1-carboxylate hydrochloride] are within error of each other in “Peak 50% Withdrawal Threshold” value: 8.18 ± 1.98 g for the first, 7.42 ± 1.21 g for the second.

CN(C)C(=O)Oc1cc(F)ccc1/C=C1/SC(N2CCCCN2)=NC1=O.Cl [2-{[(5E)-2-(1,2-diazinan-1-yl)-4-oxo-4,5-dihydro-1,3-thiazol-5-ylidene]methyl}-5-fluorophenyl N,N-dimethylcarbamate hydrochloride] was tested, and the “Peak 50% Withdrawal Threshold” value was 6.18 ± 1.77 g.

Source: US20090275538A1, “ARYLMETHYLIDENE HETEROCYCLES AS NOVEL ANALGESICS” (priority 2008, published 2009)
